Results taken from patent US20070249682A1, “Novel CD40:CD154 binding interruptor compounds and use thereof to treat immunological complications” (priority 2000, published 2007).
Like-named read-outs stand apart in the source and are kept apart here.

Legend:
[1] = target: T1, CD40:CD154 interaction (Homo sapiens, UniProt P29965); assay: Binding assay (ELISA): compound binds CD154 and inhibits binding of biotin-CD154 to immobilized CD40-Ig (Example 7); details: read-out: IC50 for CD40:CD154 binding interruption
T1 construct: made in house; host or cells: Pichia (CD40-Ig only)
T1 sequence (P29965 116-261 limits assumed): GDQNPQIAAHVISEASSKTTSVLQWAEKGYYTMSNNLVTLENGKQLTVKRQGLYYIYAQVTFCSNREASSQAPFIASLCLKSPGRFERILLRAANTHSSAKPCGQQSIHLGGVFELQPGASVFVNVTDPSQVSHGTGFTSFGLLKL
Excerpt: (§1) IC50, as used herein, is the concentration at which a compound interrupts the interaction of a protein and its receptor to 50% interaction in the assay shown in Example 7 (for interruption of CD40:CD154 interaction) and Example 8 (for interruption of TNF-α:TNFRp60 interaction). Examples of such protein and receptor pairs are CD40:CD154 and TNF-α:TNFRp60.
Binding Assay to Assess whether a compound Binds CD154 and Inhibits CD40:CD154 Interaction
1) Ninety-six well plates of Nunc Maxisorp were coated with 100 μl of 5-10 μg/ml human CD40-Ig produced in Pichia cells, (in PBS pH 7.2) per well, covered with plate sealers (Costar, Cat. No. 3095) and stored overnight at 4° C.
2) The CD40-Ig-coated plates were shook out and blotted dry.
3) The CD40-Ig-coated plates were blocked with 300 μl per well of PBS (0.05% Tween-20, 1% BSA, pH 7.2) at RT for one hour or in the refrigerator for up to 3 weeks.
4) The CD40-Ig-coated plates were washed 3× with PBS+0.05% Tween-20 pH 7.4 with plate washer at RT.
5) The plates were optionally blotted dry.
6) Primary Screening of compounds: • a. Compounds were titrated in 100 mM Hepes+0.005% BSA pH 7.2 in Titertube (Bio-Rad Laboratories) and 50 μl of titrated compounds was then added into each well of the plate. IC50 parameters: • One 7 point curve per compound was generated where each point was run in triplicate. […] Fifty μl/well of 0.07-1.6 μg/ml biotin-CD154 in 100 mM Hepes+0.005% BSA (pH 7.2) was added per well. Final concentration of biotin-CD154 was […]. It was mixed with compound in each well in the plate. • c. The plates were covered with plate sealer and incubated for one-hour at RT.
7) The plates were washed 3× with plate washer with PBS+0.05% Tween-20 (pH 7.4) at RT.
8) The plates were optionally blotted dry.
9) 100 μl of a 1/300,000 dilution of HRP-Strep/Avidin (Jackson Immuno Research Code3 #016-030-084) was added to each well. Dilution buffer was: PBS+0.05% Tween-20. The plates were covered with plate sealer and incubated for one hour at room temperature.
10) The plates were washed with plate washer 3× at RT.
11) The plates were optionally blotted dry.
12) 100 μl/well of TMB(1-component) (Kirkegarrd & Perry Labs, Prod #50-76-04) was added to each well and incubated at RT about 10 min.
13) 100 μl/well of 0.18M H2SO4 was added to stop reaction in the plates.
14) The plates were read within 30 minutes of stopping the reaction at […] on a microplate reader (Molecular Devices Co.).
Compounds that bound to CD154 and blocked CD40:CD154 interaction prevented CD154 from binding to immobilized CD40-Ig and gave a low absorbance reading.
• 1. Total reaction: Reaction well contained 50 μl of 100 mM Hepes/0.005% BSA (no test compound) • 2. Positive control: Reaction well contained 10 μl of 1 mg/ml 5c8 (anti-CD154 mAb) and 50 μl of 100 mM Hepes/0.005% BSA. • 3. Blank control: Reaction well contained 100 μl 100 mM Hepes/0.005% BSA. • 4. Compound control: Titration series in triplicate of BIO-002108-00.

[2] = target: T2, TNF-α:TNFRp60 interaction (Homo sapiens, UniProt P01375); assay: Binding assay (ELISA): compound inhibits binding of biotin-TNF-α to immobilized TNFRp60 (Example 8); details: average value; read-out: IC50 for TNF-α:TNFRp60 binding interruption
T2 construct: purchased R&D System
Excerpt: as §1
Binding Assay to Assess whether a Compound Binds to TNF-α and Inhibits TNF-α/TNFRp60 Interaction
1) Ninety-six well plates of Nunc Maxisorp were coated with 100 μl/well of 0.6 ug/ml tumor necrosis factor receptor p60 (TNFRp60) (Browning, J. L.; Douglas, I.; Ngam-ek, A.; Bourdon, P. R.; Ehrenfels, B. N.; Miatkowski, K.; Zafari, M.; Yampaglia, A. M.; Lawton, P.; Meier, W.; Benjamin, C. P.; Hession, C. J. Immunol. 1995, 154, 33-46) in PBS, pH 7.2, covered with plate sealers (Costar, Cat. No. 3095) and stored overnight at 4° C.
2) The coated plates were shook out and blotted dry.
3) TNFRp60-coated plates were blocked with 300 μl per well of PBS (0.05% Tween-20, 1% BSA, made from media prep) at 4° C. for one hour. Plates were stored for 3 weeks at 4° C. […]
14) The plates were read within 30 minutes of adding stop reagent at […] by microplate reader (Molecular Devices Co.) […]
Compounds that blocked TNF-α/TNFRp60 interaction prevented TNF-α from binding to immobilized TNFRp60 and gave a low absorbance reading. […]

[3] = compounds 'shown to have' the IC50 range, assay of Example 7, top concentration 125 μM
[4] = compounds 12 and 14-21: 'considered to have' the IC50 range (not worded as 'shown')

T2 sequence (P01375 77-233 limits assumed, species assumed): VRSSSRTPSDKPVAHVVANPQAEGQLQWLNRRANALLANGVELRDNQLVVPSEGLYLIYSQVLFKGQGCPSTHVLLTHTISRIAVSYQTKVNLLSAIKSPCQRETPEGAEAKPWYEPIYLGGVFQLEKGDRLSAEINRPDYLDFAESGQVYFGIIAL

SMILES	IC50 [1, 3]	IC50 [1, 4]	other results
O=C(Nc1cccc(S(=O)(=O)Nc2cc3ccccc3cc2C(=O)O)c1)Nc1cccc(S(=O)(=O)Nc2cc3ccccc3cc2C(=O)O)c1 [BIO-002108-00, reference compound]	< 50 µM	–	IC50 [2]: > 125 µM
CCC(C)C(NC(=O)c1cc(-c2cc(C(=O)NCc3ccccc3Br)nc(C(=O)N3CCCC3CN3CCCC3)c2)cc(C(=O)N2CCCC2CN2CCCC2)n1)C(=O)O (stereo not shown) [Compound 1]	50 to 125 µM	–	–
CCC(C)C(NC(=O)c1cc(-c2cc(C(=O)NCc3cccc(OC)c3OC)nc(C(=O)N3CCCC3CN3CCCC3)c2)cc(C(=O)N2CCCC2CN2CCCC2)n1)C(=O)O (stereo not shown) [Compound 2]	> 125 µM	–	–
CCC(C)C(NC(=O)c1cc(-c2cc(C(=O)NC(C)(C)Cc3ccc(F)cc3)nc(C(=O)N3CCCC3CN3CCCC3)c2)cc(C(=O)N2CCCC2CN2CCCC2)n1)C(=O)O (stereo not shown) [Compound 3]	> 125 µM	–	–
O=C(NCCCc1ccccc1)c1cc(-c2cc(C(=O)NC(C(=O)O)C3CCCCC3)nc(C(=O)N3CCCC3CN3CCCC3)c2)cc(C(=O)N2CCCC2CN2CCCC2)n1 (stereo not shown) [Compound 4]	< 50 µM	–	–
O=C(NCCC(c1ccccc1)c1ccccc1)c1cc(-c2cc(C(=O)N[C@H](C(=O)O)C3CCCCC3)nc(C(=O)N3CCC[C@H]3CN3CCCC3)c2)cc(C(=O)N2CCC[C@H]2CN2CCCC2)n1 [Compound 5]	< 50 µM	–	–
O=C(NCc1cccc(-c2ccccc2)c1)c1cc(-c2cc(C(=O)N[C@H](C(=O)O)C3CCCCC3)nc(C(=O)N3CCC[C@H]3CN3CCCC3)c2)cc(C(=O)N2CCC[C@H]2CN2CCCC2)n1 [Compound 6]	< 50 µM	–	–
O=C(NCCCc1ccc([N+](=O)[O-])cc1)c1cc(-c2cc(C(=O)NC(C(=O)O)C3CCCCC3)nc(C(=O)N3CCCC3CN3CCCC3)c2)cc(C(=O)N2CCCC2CN2CCCC2)n1 (stereo not shown) [Compound 7]	50 to 125 µM	–	–
Nc1ccc(CCCNC(=O)c2cc(-c3cc(C(=O)NC(C(=O)O)C4CCCCC4)nc(C(=O)N4CCCC4CN4CCCC4)c3)cc(C(=O)N3CCCC3CN3CCCC3)n2)cc1 (stereo not shown) [Compound 8]	50 to 125 µM	–	–
Nc1cccc(C(CCNC(=O)c2cc(-c3cc(C(=O)NC(C(=O)O)C4CCCCC4)nc(C(=O)N4CCCC4CN4CCCC4)c3)cc(C(=O)N3CCCC3CN3CCCC3)n2)c2ccccc2)c1 (stereo not shown) [Compound 10]	50 to 125 µM	–	–
O=C(NCCC(c1ccccc1)c1ccc([N+](=O)[O-])cc1)c1cc(-c2cc(C(=O)NC(C(=O)O)C3CCCCC3)nc(C(=O)N3CCCC3CN3CCCC3)c2)cc(C(=O)N2CCCC2CN2CCCC2)n1 (stereo not shown) [Compound 11]	< 50 µM	–	–
O=C(NC1CCc2ccccc21)c1cc(-c2cc(C(=O)NC(C(=O)O)C3CCCCC3)nc(C(=O)N3CCCC3CN3CCCC3)c2)cc(C(=O)N2CCCC2CN2CCCC2)n1 (stereo not shown) [Compound 12]	–	50 to 125 µM	–
O=C(NCc1ccc2ccccc2c1)c1cc(-c2cc(C(=O)N[C@H](C(=O)O)C3CCCCC3)nc(C(=O)N3CCC[C@H]3CN3CCCC3)c2)cc(C(=O)N2CCC[C@H]2CN2CCCC2)n1 [Compound 13]	50 to 125 µM	–	–
O=C(NCCCc1ccc(Br)cc1)c1cc(-c2cc(C(=O)N[C@H](C(=O)O)C3CCCCC3)nc(C(=O)N3CCC[C@H]3CN3CCCC3)c2)cc(C(=O)N2CCC[C@H]2CN2CCCC2)n1 [Compound 14]	–	50 to 125 µM	–
O=C(NCCCCc1ccccc1)c1cc(-c2cc(C(=O)N[C@H](C(=O)O)C3CCCCC3)nc(C(=O)N3CCC[C@H]3CN3CCCC3)c2)cc(C(=O)N2CCC[C@H]2CN2CCCC2)n1 [Compound 15]	–	< 50 µM	–
O=C(NC/C=C/c1ccccc1)c1cc(-c2cc(C(=O)NC(C(=O)O)C3CCCCC3)nc(C(=O)N3CCCC3CN3CCCC3)c2)cc(C(=O)N2CCCC2CN2CCCC2)n1 (stereo not shown) [Compound 16]	–	50 to 125 µM	–
CCC(C)C(NC(=O)c1cc(-c2cc(C(=O)NCc3ccccc3Br)nc(C(=O)N3CCCC3CN(C)C)c2)cc(C(=O)N2CCCC2CN(C)C)n1)C(=O)O (stereo not shown) [Compound 17]	–	50 to 125 µM	–
CCC(C)C(NC(=O)c1cc(-c2cc(C(=O)NCc3ccccc3Br)nc(C(=O)N3CCCC3CN(C)C3CCCCC3)c2)cc(C(=O)N2CCCC2CN(C)C2CCCCC2)n1)C(=O)O (stereo not shown) [Compound 18]	–	50 to 125 µM	–
CCC(C)C(NC(=O)c1cc(-c2cc(C(=O)NCc3ccccc3Br)nc(C(=O)N3CCCC3CN3CCCCC3)c2)cc(C(=O)N2CCCC2CN2CCCCC2)n1)C(=O)O (stereo not shown) [Compound 19]	–	50 to 125 µM	–
COC(=O)[C@@H](NC(=O)c1cc(-c2cc(C(=O)NCCCc3ccccc3)nc(C(=O)N3CCC[C@H]3CN3CCCC3)c2)cc(C(=O)N2CCC[C@H]2CN2CCCC2)n1)C1CCCCC1 [Compound 20]	–	50 to 125 µM	–
CC(C)(C)[C@H](NC(=O)c1cc(-c2cc(C(=O)NCCCc3ccccc3)nc(C(=O)N3CCC[C@H]3CN3CCCC3)c2)cc(C(=O)N2CCC[C@H]2CN2CCCC2)n1)C(=O)O [Compound 21]	–	50 to 125 µM	–
